Experimental data from patent US4900744A, “Antihypercholesterolemic 4,5-diaryl-2-substituted thioimidazoles” (E. I. Du Pont de Nemours and Company, priority 1988, dated 1990).

Assays:
[1] = molecular target: acyl-CoA:cholesterol acyltransferase (ACAT); assay: Inhibition of Acyl CoA:Cholesterol Acyltransferase (ACAT) in Hepatic Microsomes; format: biochemical, rat (male Sprague Dawley); conditions: rat hepatic microsomes, 75 μM 14C-oleoyl-CoA, pH 7.4, 37° C., 15 min preincubation, 10 min assay; read-out: IC50 In Vitro ACAT
Procedure: The ability of the compounds of this invention to inhibit ACAT, the enzyme responsible for the intracellular synthesis of cholesteryl esters, was tested as follows. Male Sprague Dawley rats weighing 150-300 g were fed rat chow ad libitum. The animals were fasted for twenty-four hours prior to being sacrificed by decapitation. The livers were perfused in situ with 50 ml of cold 0.25 M sucrose, excised, and homogenized in three volumes of 0.1 M phosphate buffer, pH 7.4 containing 0.5 mM EDTA (ethylenediaminetetraacetic acid), 1.0 mM glutathione, 0.25 M sucrose and 20 μM leupeptin. Microsomes were obtained by differential centrifugation; the supernatant from an initial spin at 15,000×g. for 15 minutes (which removed cell debris and mitochondria) was centrifuged at 105,000×g. for 1 hr to pellet the microsomes. The microsomes were suspended in homogenization buffer reisolated by centrifugation and stored at -70° C. Microsomes were used within one month of preparation.
The control assay in a final volume of 200 μl consisted of 200 μg of microsomal protein, 75 μM ^14 C-oleoyl-CoA (10,000 dpm/nmol) in 0.1 M phosphate, pH 7.4 containing 1 mM glutathione. Compounds were added in 5-10 μl of DMSO (dimethyl sulfoxide) and additional controls were run with DMSO only. All components, except the radiolabeled oleoyl-CoA, were preincubated for 15 min at 37° C. prior to the initiation of the reaction by addition of radiolabeled oleoyl-CoA. The assay was terminated after 10 min by the addition of 500 μl of hexane: isopropanol (3:2, v/v). 20,000 dpm of ^3 H-cholesteryl oleate and 10 μg of unlabeled cholesteryl oleate and oleic acid were added as an internal standard and carriers, respectively. After allowing 10 min for lipid extraction, the samples were centrifuged at 1,000×g for 10 mins to separate the solvent layers. 200 μl of the top (hexane) layer containing the neutral lipids was spotted onto a Baker SI250-Pa silica gel TLC plate and the plate developed using a hexane: diethyl ether: acetic acid (170:30:1 v/v/v) mobile phase. The lipids were visualized by their interaction with iodine vapor and the cholesteryl ester spot was scraped into a scintillation vial and the radioactivity on the gel was determined by standard liquid scintillation spectrometry. The specific activity of ACAT in control microsomes averaged 260 pmol/min/mg microsomal protein. The % inhibition of the various compounds was the ACAT activity in the presence of the inhibitor divided by the activity of the control (vehicle alone) times 100%-100.

J774 cells = assay: Inhibition of Cholesterol Esterification in Mammalian Cells (macrophage-like cell line J774); format: cell-based; conditions: Mus musculus; murine macrophage-like cell line J774, +LDL (200 μg/ml), 14C-oleic acid incorporation into cholesteryl ester
Procedure: The esterification of cholesterol was determined in the murine macrophage-like cell line J774. J774 cells were placed in 60 mm dishes at a density of 200,000 cells per dish in 3.0 ml of Dulbecco's minimal essential medium (DMEM) containing 10% Fetal bovine serum. Cells were incubated at 37° C. in an atmosphere of 5% CO2 and 93% humidity. After 24 hr, the cells were washed with 2 ml of Hanks buffered saline and the media changed to 1.5 ml of DMEM containing 1% Cabosil® treated serum (CTS) to up-regulate LDL receptors. At 56 hr, fresh media that contained 1% CTS was added to the cells; in all but control dishes the media contained 200 μg LDL/ml to increase the intracellular concentration of cholesterol and promote esterification. At 72 hr, various inhibitors were added to the cells in DMSO (10 μl/ml maximum). At 74 hr, the cells were pulsed with 0.1 mM ^14 C-oleic acid (20,000 dpm/nmol) complexed with bovine serum albumin (BSA) to follow cholesteryl ester formation. The experiment was terminated at 76 hrs by washing the monolayers 3 times with 3 ml of Tris-buffered saline at 4° C. The lipids were extracted by incubating the monolayers with 1.5 ml of hexane: isopropanol (3:2, v/v) for 30 mins under gentle agitation. During this period, 20,000 dpm ^3 H-cholesteryl linoleate and 10 μg of cholesteryl oleate were added as an internal standard and carrier respectively. The organic solvent was removed and the cells were washed with an additional 1.0 ml of hexane: isopropanol which was combined with the original extract. The cells were allowed to dry overnight, digested with 1.5 ml of 0.2 N sodium hydroxide for 1 hr, and an aliquot of the solubilized protein used for protein determination using the Lowry method. The organic extract was taken to dryness, the residue resuspended in 100 μl of chloroform and the lipids separated on silica gel impregnated glass fiber plates using a hexane: diethyl ether: acetic acid (170:30:1, v/v/v) solvent system. The cholesteryl ester spot was visualized with iodine, cut out, and transferred to scintillation vials to determine the amount of radioactivity. The conversion of oleic acid to cholesteryl ester in the control averaged 0.54 nmol/hr/mg protein and was increased upon the addition of LDL to about 2.37 nmol/hr/mg protein. Inhibition of esterification by various compound was determined by dividing the specific activity (+LDL) in the presence of the inhibitor by the specific activity (+LDL) of the vehicle alone times 100% -100.

IC50 [1]	IC50 (J774 cells)	SMILES
23 µM	78 µM	O=C(O)CCCCCCCOc1nc(-c2ccccc2)c(-c2ccccc2)n1-c1ccccc1 [Octimibate, reference compound]
1 µM	17 µM	O=C(O)CCCCCCCCCCSc1nc(-c2ccccc2)c(-c2ccccc2)[nH]1 [Example 58, 11-(4,5-Diphenyl-1H-imidazol-2-ylthio)undecanoic acid]
2 µM	80 µM	O=C(O)CCCCCCCSc1nc(-c2ccccc2)c(-c2ccccc2)[nH]1 [Example 57, 8-(4,5-Diphenyl-1H-imidazol-2-ylthio)octanoic acid]
1 µM	17 µM	CCOC(=O)CCCCCCCCCCSc1nc(-c2ccccc2)c(-c2ccccc2)[nH]1 [Example 2, 11-(4,5-Diphenyl-1H-imidazol-2-ylthio)undecanoic acid ethyl ester]
2 µM	19 µM	CCOC(=O)CCCCCCCSc1nc(-c2ccccc2)c(-c2ccccc2)[nH]1 [Example 1, 8-(4,5-Diphenyl-1H-imidazol-2-ylthio)octanoic acid ethyl ester]
